Consider one substance from patent publication US4512980A, “Peptide, process for preparation thereof and use thereof” (priority 1979, dated 1985).

One assay deals with E. coli 22. In words: Protective efficacy in experimental infection in mice. In kind it is in vivo. The settings on record: male ICR mice, E. coli 22 i.p., survival after four days. As for the experimental part: In determining the protective efficacy against experimental infections in mice, the test compound was dissolved in and diluted with sterile saline to provide prescribed concentrations of drug.
Male ICR-strain mice, aged 4 weeks were used in groups of ten mice. E. coli 22 was cultivated overnight at 37° C. on trypticase soy agar and then were suspended in a sterile saline to obtain microbial cell concentration of 9.0×10^7 CFU/ml. Mice were inoculated intraperitoneally with 0.2 ml of the suspension. Each of the test drugs was given intraperitoneally in various doses to a group of ten mice 24 hours before challenge.
Survival percent were found from the number of the surviving animals after four days of injection.

A further assay relates to Mice (DDY male 5-6 W). In words: Blood stream clearance of carbon. The format is in vivo. The note with it: carbon clearance measured 24 hours later. The procedure:
1. Carbon suspension. Rotoring drawing ink (170 mg carbon/ml.) was diluted to 1/5 of the original concentration in saline containing 1% gelatin. 2. 0.1% aqueous sodium carbonate solution. Mice (DDY male 5-6 W) were injected via the tail vein with a dose of 0.01 ml/g body weight of carbon. Blood samples were taken by means of a pointed capillary […] calibrated to hold a 50 μl and previously washed in heparin. This was plunged into the retroorbital venous sinus at the nasal angle of the eye. The samples were removed at 3 and 6 min. The blood was immediately discharged into 3.0 ml. of the sodium carbonate solution. This hemolyzed the blood and allowed the quantitation of carbon. The samples were then read in a spectrophotometer at 660 nm, the log concentration being obtained from a previously determined standard curve. The clearance value K may be determined by plotting log carbon concentration against time according to the following relationship; [formula] in which T1 and T2 represent the time in min when the sample were withdrawn and C1 and C2 represent the concentrations of carbon in the blood at the time T1 and T2, respectively. The aqueous solution of the drug as given was administered subcutaneously to mice. Twenty four hours later, blood stream clearance of carbon was measured. K value obtained with treated mice was compared with that of control mice.

Regarding “D-Lac-L-Ala-γ-D-Glu(α-OH)-(L)-[D-Lac-L-Ala-γ-D-Glu(α-OH)-(L)-mesoDAP-(D)-Gly]-(D)-mesoDAP-(L)-GlyOH [Example 13 (Step 2)]”, the “Survival (%)” value with E. coli 22 (dose 1 mg/kg intraperitoneally 24 hours before challenge) and with E. coli 22 (dose 10 mg/kg intraperitoneally 24 hours before challenge) was 100% each time. The “K treated/K control” value is 0.6 in the assay on Mice (DDY male 5-6 W) (dose 1 mg/mouse subcutaneously) and 1.6 in the assay on Mice (DDY male 5-6 W) (dose 100 mg/mouse subcutaneously).
